Laboratory results as given in patent publication US20140242093A1, “METHODS AND COMPOSITIONS FOR MODULATING THE INNATE IMMUNE RESPONSE AND/OR MYOGENESIS IN A MAMMALIAN SUBJECT” (FRED HUTCHINSON CANCER RESEARCH CENTER, priority 2011, published 2014).

Assays:
[1] = system: HCT116, primary dendritic cells, JJ and FS; test: Real-time PCR of PRAMEF1 in transduced HCT116, primary dendritic cells, JJ and FS cell lines; type: cell-based, human
Protocol: HCT116 cells were infected with a control lenti-GFP or with lenti-DUX4-fl and the abundance of PRAMEF1 mRNA measured relative to a constitutively expressed gene, RPL13a.
Primary dendritic cells and the tumor cell lines derived from patients with chondrosarcomas designated JJ and FS (described in Jagasia, et al., 1996, supra) were transduced with lentiviral constructs expressing a control gene, green fluorescent protein (GFP), or DUX4fl. PRAMEF1 mRNA was measured by real-time PCR relative to a constitutively expressed control, RPL13a.

[2] = system: human rhabdomyosarcoma cell line RD; test: Luciferase reporter assay with DUX4 binding sites; type: cell-based
Protocol: The DUX4 binding site in the ZSCAN4 pGL3-promoter construct was either reversed in orientation (as shown in FIG. 3D) or moved downstream of the reporter gene (as shown in FIG. 3E). […] Transfections and luciferase assays were done as in main methods. Data are given as the averages±SD of triplicates.
Transient DNA transfections of RD cells were performed using SuperFect (Qiagen) according to manufacturer specifications. Briefly, 3×10^5 cells were seeded per 35 mm plate the day prior to transfection. […] Cells were lysed 24 h post-transfection in Passive Lysis Buffer (Promega). Luciferase activities were quantified using reagents from the Dual-Luciferase Reporter Assay System (Promega) following manufacturer's instructions. Light emission was measured using BioTek Synergy2 luminometer. Luciferase data are given as the averages±SD of at least triplicates.

[3] = system: 31-bp oligonucleotides containing the putative DUX4 binding site; test: Electromobility shift assay (EMSA); parameters: species or system human; conditions: in vitro translated protein; TRIM48, CSF1R, THE1D oligos
Protocol: EMSA was performed with ^32P-labeled 31-bp oligonucleotides from endogenous genomic sequences containing the putative DUX4 binding site as probes (sequences below; only forward shown). Radiolabeled probes were incubated with in vitro translated protein generated from pCS2-DUX4-fl or pCS2-DUX4-s^2 vectors using the TNT SP6 Coupled Wheat Germ Extract System (Promega) according to manufacturer's instructions. To obtain supershift of protein-DNA complexes, 0.1 μg of E14-3 anti-DUX4 rabbit monoclonal antibody was added to the mixtures. For competition experiments, excess unlabeled probes of either wild-type or mutant sequences were included in the binding reaction. The gels were prepared and run as previously described (Knoepfler et al., 1999).

Substance: DUX4-fl: full-length DUX4 protein (SEQ ID NO:110), expressed from lentiviral or pCS2 vectors or in vitro translated
- PRAMEF1 gene expression [1]: robust activation of the PRAMEF1 gene
- luciferase reporter with DUX4 binding sites from LTRs at a MaLR THE1D element [2]: activated transcription of a luciferase reporter
- luciferase expression from pGL3-promoter reporter with 31 bp DUX4 binding site ([2]; TRIM48 or ZSCAN4 site, co-transfection in RD cells): significantly induced luciferase expression
- binding to DUX4 core motifs [3]: binds the core motifs present in both MaLR-associated and non-repeat associated sites
